Reference: paper PMC7473970, “Preformulation Studies of a Stable PTEN-PDZ Lipopeptide Able to Cross an In Vitro Blood-Brain-Barrier Model as a Potential Therapy for Alzheimer’s Disease” (Pharmaceutical Research, 2020)
Where two headings read alike, the source gives them in different places. Residues, ends and D or L forms follow the SMILES beside them.

Key:
[1] = In vitro stability in simulated intestinal fluid (mouse intestinal wash); format: in vitro ADME; conditions: 120 μL of 5 mM DMSO stock in 1080 μL, 37°C, 0-1440 min, HPLC-UV 220 nm, n = 3; for k: Simulated intestinal fluid = undiluted pooled CD-1 mouse duodenum/ileum wash in 50 mM phosphate buffer pH 6.63, 100 rpm, one phase decay, least square fit; for t1/2 (h) / t1/2 (min): Simulated intestinal fluid = undiluted pooled CD-1 mouse duodenum/ileum wash, phosphate buffer pH 6.63, one phase decay fit
Experimental: (§1) The samples were analyzed at 40°C on a Phenomenex Lichrosorb RP8 C8 column (4.0 mm × 250 mm, 5 μm), using the gradient elution method on an Agilent HPLC system (Agilent Technologies, Cheadle, UK) equipped with an 1100 series degasser, quaternary pump, autosampler, and column heater, and attached to an Agilent 1200 series PDA detector and a 1250 series fluorescent detector. The flow rate was set at 1.2 mL min^-1, and the injection volume was set at 40 μL, while detection was performed at 220 nm. The mobile phase was a mixture of mobile phase A (0.1% TFA in water) and phase B (0.08% TFA in acetonitrile), and in the first 5 min, the mobile phase was an 8:2 ratio of A:B (v/v) and from 5 to 15 min the percentage of B was raised from 8:2 to 1:9 (v/v). Linear calibration curves were constructed for both peptides between 0.1–100 μg.mL^−1. The retention time for the human Lau–PTEN-PDZ, mouse Lau–PTEN-PDZ, human Myr–PTEN-PDZ, and mouse Myr–PTEN-PDZ was 12.03, 11.60, 13.68, and 13.91, respectively.
The duodenum and ileum were excised from 10 non-fasted CD-1 male mice (7 weeks-old: Charles River Laboratories) that were sacrificed with CO2. Each duodenum and ileum were washed with 6 ml of phosphate buffer (50 mM, pH 6.63), and all the washes were pooled prior to centrifugation at 4000 rpm for 15 min at 4°C (Heraeus Multifuge 3sf) ([7],[15]). The intestinal wash was removed and frozen at −80°C prior to using it in stability studies without further dilution. Peptides stocks (5 mM in DMSO) were prepared and maintained at −20°C prior to performing stability studies. A stock peptide solution (120 μL) was added to the diluted pre-warmed (37°C) intestinal wash (1080 μL) with agitation at 100 rpm (Grant Aqua Waterbath), and samples (80 μL) were taken at 0, 15, 30, 45, 60, 90, 120, 180, 240, 360 and 1440 min, and diluted with ice-cold glacial acetic acid (17.5 M): acetonitrile (5:95 v/v, 80 μL) to quench the enzyme activity. Samples were vortexed and left in −80°C at least overnight to maximize protein precipitation, and after vortexing again for 15 min and centrifuging, the supernatant was analyzed by HPLC as described above.

[2] = In vitro stability in 50% liver homogenate; format: in vitro ADME, mouse; conditions: 37°C; for k: 50% w/v CD-1 mouse liver homogenate in PBS pH 7.4, 120 μL of 5 mM DMSO stock in 1080 μL, 100 rpm, 0-1440 min; for k / t1/2 (h) / t1/2 (min): HPLC-UV 220 nm, one phase decay, least square fit, n = 3; for t1/2 (h) / t1/2 (min): 50% w/v mouse liver homogenate in PBS pH 7.4
Experimental: as §1
(§2) The liver and brain of the mice were excised from […] CD-1 male mice (7 weeks-old: Charles River Laboratories) sacrificed with CO2, and the tissue was frozen immediately with liquid nitrogen prior to storage at −80°C. The liver and brain tissue were thawed and homogenized on ice in PBS (2 mL/g of tissue) using a glass 3 mL tissue homogenizer (20 strokes per sample), and the liver and brain homogenates were centrifuged (Heraeus Multifuge 3sf, Fisher Scientific, Basingstoke, UK) at 4300 g for 60 min at 4°C and at 3000 g for 20 min at 4°C, respectively. The supernatant was stored at −80°C, diluted 1:1 (v/v) with PBS (1x, pH 7.4), and used in stability studies. Peptides stocks (5 mM in DMSO) were prepared and maintained at −20°C prior to performing stability studies. These stock solutions (120 μL) were added to the diluted pre-warmed (37°C) liver or brain homogenate (50% v/v, 1080 μL) with agitation (100 rpm: Grant Aqua Waterbath), and samples (80 μL) were taken at 0, 5, 10, 15, 30, 45, 60, 90, 120, 180, 240, 360 and 1440 min, and diluted with ice-cold acetonitrile (80 μL). Samples were vortexed and left at −80°C at least overnight to allow for maximum protein precipitation, the samples were vortexed again for 15 min, centrifuged and the supernatant was analyzed by HPLC as described above.
(§3) The total protein concentration in the homogenates was determined using the Bradford protein assay ([7],[15]) and BSA as a standard. Ten stock solutions of BSA were prepared in PBS between 0.1–1 mg mL^−1, and 40 μL of each of the diluted stocks were added to 1.2 mL of Bradford reagent and incubated at room temperature for 5 min. The absorbance was recorded at 595 nm using a Multiskan GO spectrophotometer and the SkanIt software (Thermo Scientific, Paisley, UK). A linear calibration curve was obtained in this range that was used to extrapolate the protein content of 1:100 v/v stock solutions of 50% mouse plasma, liver, and brain homogenates diluted in PBS.

[3] = In vitro stability in 50% v/v mouse plasma; format: in vitro ADME; conditions: 37°C, HPLC-UV 220 nm, one phase decay, least square fit, n = 3; for k: 50% v/v CD-1 mouse plasma (K3 EDTA) in PBS, 120 μL of 5 mM DMSO stock in 1080 μL, 100 rpm, 0-1440 min
Experimental: CD-1 male mice (7 weeks old: Charles River Laboratories) were sacrificed with CO2, and blood was collected in K3E EDTA spray-coated vacutainers and kept on ice prior to centrifugation at 3000 rpm for 15 min at 4°C (Heraeus Multifuge 3sf). Mouse plasma samples were stored at −80°C before use in stability studies. Study was approved by the University of Portsmouth Animal Welfare and Ethical Review Body (UoP AWERB body, 817).
For testing, the plasma was diluted (1:1) in PBS without phenol and pre-warmed to 37°C. Peptides stocks (5 mM in DMSO) were prepared and maintained at −20°C before performing the stability studies. Peptide stock solutions (120 μL) were added to pre-warmed diluted plasma (50% v/v, 1080 μL) and maintained at 37°C with agitation (100 rpm: Grant Aqua Waterbath, Royston, UK). Samples (80 μL) were taken at 0, 3, 6,9, 15, 30, 45, 60, 90, 120, 180, 240, 360 and 1440 min, diluted with ice-cold acetonitrile (80 μL), vortexed and left in −80°C at least overnight to favor maximal protein precipitation. The samples were then vortexed again for 15 min (SciQuip microplate shaker, Shropshire, UK), centrifuged in a Thermo Sci Jouan B4i Centrifuge (Hemel Hampstead, UK) and the supernatant was transferred to an HPLC vial (200 μL).
as §1

[4] = In vitro stability in 50% brain homogenate; format: in vitro ADME, mouse; conditions: 37°C, HPLC-UV 220 nm, one phase decay, least square fit, n = 3; for k: 50% w/v CD-1 mouse brain homogenate in PBS pH 7.4, 120 μL of 5 mM DMSO stock in 1080 μL, 100 rpm, 0-1440 min; for t1/2 (h) / t1/2 (min): 50% w/v mouse brain homogenate in PBS pH 7.4
Experimental: as §1, §2, §3

[5] = Permeability across in vitro 2D human blood-brain barrier model; format: in vitro ADME
[6] = read-out: Papp0-4h, Experiment 2
[7] = 50% w/v mouse liver homogenate, two phase decay fit, fast phase
[8] = 50% w/v mouse liver homogenate, two phase decay fit, slow phase

Compound | k [1] [h⁻¹] | t1/2 (h) [1] [h] | t1/2 (min) [1] [min] | k [2] [h⁻¹] | t1/2 (h) [2] [h] | t1/2 (min) [2] [min] | k [3] [h⁻¹] | t1/2 (h) ([3]; 50% v/v mouse plasma in PBS) | t1/2 (min) ([3]; 50% v/v mouse plasma in PBS) | k [4] [h⁻¹] | t1/2 (h) [4] [h] | t1/2 (min) [4] [min] | Papp A→B at 100 μM [5, 6] [×10⁻⁶ cm/s] | other results
CCCCCCCCCCCC(=O)N[C@@H](CCC(N)=O)C(=O)N[C@@H](Cc1c[nH]cn1)C(=O)N[C@H](C(=O)N[C@@H](CCC(N)=O)C(=O)N[C@H](C(=O)N[C@H](C(=O)N[C@@H](CCCCN)C(=O)N[C@H](C(=O)O)C(C)C)[C@@H](C)O)[C@@H](C)CC)[C@@H](C)O [Human Lau-PTEN-PDZ] (HELM PEPTIDE1{[CCCCCCCCCCCC(=O)[*:2]].Q.H.T.Q.I.T.K.V}$$$$V2.0) | 0.23 | 2.96 | 177.96 | 1.15 | 0.60 | 36.28 | 4.60 | 0.15 | 9.05 | 1.90 | 0.36 | 21.87 | 5.57 ± 0.29 | 
CCCCCCCCCCCCCC(=O)N[C@@H](CCC(N)=O)C(=O)N[C@@H](Cc1c[nH]cn1)C(=O)N[C@H](C(=O)N[C@@H](CCC(N)=O)C(=O)N[C@H](C(=O)N[C@H](C(=O)N[C@@H](CCCCN)C(=O)N[C@H](C(=O)O)C(C)C)[C@@H](C)O)[C@@H](C)CC)[C@@H](C)O [Human Myr-PTEN-PDZ] (HELM PEPTIDE1{[CCCCCCCCCCCCCC(=O)[*:2]].Q.H.T.Q.I.T.K.V}$$$$V2.0) | 0.25 |  |  | 0.04 | 18.5 | 1110 | 6.17 | 0.11 | 6.74 | 4.20 | 0.16 | 9.89 | 3.77 ± 0.39 | k (fast) [2, 7]: 3.05 h⁻¹; t1/2 (h) fast [2, 7]: 0.23 h; t1/2 (min) fast [2, 7]: 13.63 min; k (slow) [2, 8]: 0.0005 h⁻¹; t1/2 (h) slow [2, 8]: 1510 h; t1/2 (min) slow [2, 8]: 90,600 min
CCCCCCCCCCCC(=O)N[C@@H](CCC(N)=O)C(=O)N[C@@H](Cc1c[nH]cn1)C(=O)N[C@@H](CO)C(=O)N[C@@H](CCC(N)=O)C(=O)N[C@H](C(=O)N[C@H](C(=O)N[C@@H](CCCCN)C(=O)N[C@H](C(=O)O)C(C)C)[C@@H](C)O)[C@@H](C)CC [Mouse Lau-PTEN-PDZ] (HELM PEPTIDE1{[CCCCCCCCCCCC(=O)[*:2]].Q.H.S.Q.I.T.K.V}$$$$V2.0) | 2.34 | 0.30 | 17.77 | 0.73 | 0.95 | 57.14 | 0.12 | 5.86 | 351.84 | 3.48 | 0.20 | 11.95 |  | half-life at 0.5 mM ([3]; male, CD-1, 50% v/v mouse plasma (K3 EDTA) diluted in PBS, 50% v/v mouse plasma in PBS): 354 min; Papp A→B at 100 μM ([5]; read-out: Papp0-4h, Experiment 1): 6.28 ± 1.85 ×10⁻⁶ cm/s
